Source: patent US8022056B2, “Compositions and methods for the treatment of cancer” (Tautatis, Inc, priority 2006, dated 2011)
Where “and” joins values, the source holds several entries; their conditions need not be identical. Equal values may be shown once.

How the values were obtained:
[1] = system: PC-3 xenograft; test: Mouse xenograft model PC-3; format: in vivo; details: Prostate, p53/PTEN; oral twice daily dosing
Protocol: (§1) The efficacy of the compound of the formula 1 was confirmed in mouse tumor xenograft models, employing the NMRI(nu/nu) strain of mice. For example, cells from the human tumor cell lines MDA-MB-231, U373, and HT29 were pre-incubated subcutaneously in several nude mice to select for the most robustly growing cell population. After having grown to a sufficient size after 2-3 weeks, a piece of about 2 mm^3 volume of the most suitable tumor was transplanted subcutaneously into the region of the thoracic mammary fat pads, an area ensuring a high degree of vascularization of the grafted tissue. […] During the course of the treatment, the weight of the animals and the size of the transplanted tumor was monitored three times a week. […] These doses are best determined separately for each individual mouse strain employed.
(§2) To establish a solid tumour 3×10^6 tumor cells suspended in 100 μl of serum free medium (RPMI) were inoculated subcutaneously into the region of the thoracic mammary fat pads of 5 Male NMRI(nu/nu) mice of 8-10 weeks of age. […] During the course of the treatment body weight changes and tumor growth were recorded three times a week. Growth curves were plotted together with standard deviations and the significance of differences was determined using an unpaired t-test in FIG. 11. […]

[2] = system: HT29 xenograft; test: Mouse xenograft model HT29; format: in vivo
Protocol: The efficacy of the compound of the formula 1 was confirmed in mouse tumor xenograft models, employing the NMRI(nu/nu) strain of mice. For example, cells from the human tumor cell lines MDA-MB-231, U373, and HT29 were pre-incubated subcutaneously in several nude mice to select for the most robustly growing cell population. After having grown to a sufficient size after 2-3 weeks, a piece of about 2 mm^3 volume of the most suitable tumor was transplanted subcutaneously into the region of the thoracic mammary fat pads, an area ensuring a high degree of vascularization of the grafted tissue. When tumors reached a diameter of about 3 mm mice were assigned to treatment groups with about equal average tumor sizes, and therapy was started. Application of the compound of the formula 1 was performed preferably by oral gavage twice daily for continuous exposure, with doses between 1 and 10 mg/kg of the compound of the formula 1 as a solid suspension in water, or in aqueous liquid formulations containing common adjuvants, like polyethylene glycols (PEG), preferentially in form of a salt with a physiologically applicable acid, including but not limited to hydrochloric acid, phosphoric acid, lactic acid, malonic acid, citric acid, etc. Other suitable adjuvants include but are not limited to polyvinyl pyrrolidone (Povidone) of varying average molecular weights. During the course of the treatment, the weight of the animals and the size of the transplanted tumor was monitored three times a week. For maximum efficacy, a daily treatment regimen was chosen at the maximally applicable dose, as defined by the absence of significant weight loss over the course of the treatment. These doses are best determined separately for each individual mouse strain employed.
To establish a solid tumour 3×10^6 tumor cells suspended in 100 μl of serum free medium (RPMI) were inoculated subcutaneously into the region of the thoracic mammary fat pads of 5 Male NMRI(nu/nu) mice of 8-10 weeks of age. After 3-4 weeks tumor bearing mice were killed by cervical dislocation and the tumor of one selected donor mouse was excised under sterile conditions. Vital tumor regions were cut into 2 mm^3 pieces, picked up by a trocar (13 ga), and transplanted subcutaneously into NMRI(nu/nu) of the same stock. The tumor grade of the transplanted tissue was checked by routine histopathology (HE staining). Tumor growth and body weight were registered weekly during tumor establishment. When subcutaneous tumors reached diameters of about 3 mm the animals were randomly assigned to a treatment and a vehicle control group, each consisting of 10-12 animals, and a therapeutic regimen was started comprising twice daily applications by oral gavage of 2.5 mg/kg of compound 1 in a vehicle of 50 mM (−)-lactic acid in 50% polyethylene glycol 400. During the course of the treatment body weight changes and tumor growth were recorded three times a week. Growth curves were plotted together with standard deviations and the significance of differences was determined using an unpaired t-test in FIG. 11. In untreated mice tumor areas had grown after 9 days by about 150%, while in the treated group average tumor areas had grown only by about 50% (P=0.012).

[3] = molecular target: PKA; test: Kinase inhibition under standard conditions, PKA; format: biochemical
[4] = system: ACHN xenograft; test: Mouse xenograft model ACHN; format: in vivo; details: Kidney, CDKN2A; oral twice daily dosing
Protocol: as §1, §2

[5] = system: U373 glioblastoma cell line; test: Long-term growth inhibition, crystal violet staining; format: cell-based, human; details: 10 nM, over a week
Protocol: (§3) For proliferation assays tumor cell suspensions (100 μl/well) were seeded into 96-well flat bottomed microtitration plates at a density of ca. 15 cells/microscopic field (magnification 320×). After 2-3 days the culture medium was removed by suction and replaced by fresh medium (200 μl/well) containing varying concentrations of the compound of the formula 1 or vehicle (0.5% DMSO). Compound 1 was added as […] concentrated feed solutions. On every plate 16 wells served as controls and 16 wells were used per concentration of 1. After various times of incubation the cells were fixed with glutardialdehyde and stored in a refrigerator. At the end of the assay all plates were processed simultaneously (staining with 0.02% aqueous crystal violet solution (100 μl/well). Excess dye was removed by rinsing the trays with water for 20 min. The stain bound by the cells was redissolved in 70% ethanol (180 μl/well) while shaking the microplates for about 3 hours. Absorbance (proportional to cell mass) was measured at 578 nm using a BIOTEK 309 Autoreader. The results (mean values±standard deviation) were plotted as growth curves.
The EGF-receptor independent U373 Human Glioblastoma cell line (obtained from ATCC, Rockville, USA) was cultured as above. Treatment with the compound of the formula 1 and analysis of growth inhibition was performed analogous to Example 3.

[6] = system: MDA-MB-231 breast cancer cell line; test: as above; format: cell-based, human
Protocol: The human estrogen receptor and EGF receptor negative MDA-MB-231 (HTB 26) breast cancer cell line (obtained from ATCC, Rockville, USA) were cultured in McCoy's 5A medium containing L-glutamine, 2.2 g/l NaHCO3 and 5% fetal calf serum. Cells were maintained in a water saturated atmosphere (95% air/5% carbon dioxide) at 37° C. in 75-cm^2 culture flasks, and were serially passaged following trypsinization using 0.05% trypsin/0.02% EDTA.
as §3

[7] = Colon, Raf/PI3K/p53/APC, 2.5 mg/kg p.o. twice daily, 30 days

Structure (SMILES): CNC(=O)[C@@]1(N)C[C@H]2O[C@]1(C)n1c3ccccc3c3c4c(c5c6ccccc6n2c5c31)C(=O)NC4 [Compound 1]
- Mean % Inhibition [1]: 68%
- N tumors with no/neg. growth [1]: 2 of 11
- signs of organ toxicity in heart, lung, kidney, liver, duodenum, and colon ([2]; 30 days of continuous treatment, all 11 animals): complete absence of any signs of organ toxicity
- effect on body weight ([2]; 30 days, 2.5 mg/kg p.o. twice daily): absence of any significant effect on body weight
- irritation in the mucosal layers of duodenum and colon tissues ([2]; 30 days, oral route): absence of any signs of irritation
- Mean % Inhibition [2, 7]: 70%
- N tumors with no/neg. growth [2, 7]: 2 out of 10 and 2 of 11
- growth of average tumor areas in treated group ([2]; after 9 days, 2.5 mg/kg p.o. twice daily): about 50%
- IC50 [3]: 300 nM
- Mean % Inhibition [4]: 86%
- N tumors with no/neg. growth [4]: 5 of 10
- growth arrest of U373 cells [5]: almost completely effective
- growth of MDA-MB-231 cells ([6]; 10 nM, 1 week of exposure): almost completely prevents the growth
- prolonged effect on growth after a single short exposure ([6]; MDA-MB-231, single exposure 1 to 6 hrs, 100 nM): sustained inhibition over at least one week
- anti-tumor activity compared with cis-platin ([6]; MDA-MB-231 growth): substantially more potent and efficacious
- anti-tumor activity compared with vinblastine ([6]; MDA-MB-231 growth): matches the activity of vinblastine
